Test results reported in US20080234252A1, “Compounds Useful in Therapy” (Pfizer Inc, priority 2005, published 2008).

Target: T1, human V1A receptor (Homo sapiens, UniProt P37288)
T1 construct: expressed in transfected cells; host or cells: CHO cells (CHO-hV1A line provided by Marc Thibonnier, Case Western Reserve University)
Experiment: V1A filter binding assay ([3H]-AVP binding to CHO-hV1A membranes)
Procedure: 1.0 V1A Filter Binding Assay
Receptor binding assays were performed on cellular membranes prepared from CHO cells stably expressing the human V1A receptor, (CHO-hV1A). The CHO-hV1A cell line was kindly provided under a licensing agreement by Marc Thibonnier, Dept. of Medicine, Case Western Reserve University School of Medicine, Cleveland, Ohio. CHO-hV1A cells were routinely maintained at 37° C. in humidified atmosphere with 5% CO2 in DMEM/Hams F12 nutrient mix supplemented with 10% fetal bovine serum, 2 mM L-glutamine, 15 mM HEPES and 400 μg/ml G418. For bulk production of cell pellets, adherent CHO-hV1A cells were grown to confluency of 90-100% in 850 cm^2 roller bottles containing a medium of DMEM/Hams F12 Nutrient Mix supplemented with 10% fetal bovine serum, 2 mM L-glutamine and 15 mM HEPES. Confluent CHO-hV1A cells were washed with phosphate-buffered saline (PBS), harvested into ice cold PBS and centrifuged at 1,000 rpm. Cell pellets were stored at −80° C. until use. Cell pellets were thawed on ice and homogenised in membrane preparation buffer consisting of 50 mM Tris-HCl, pH 7.4, 5 mM MgCl2 and supplemented with a protease inhibitor cocktail, (Roche). The cell homogenate was centrifuged at 1000 rpm, 10 min, 4° C. and the supernatant was removed and stored on ice. The remaining pellet was homogenised and centrifuged as before. The supernatants were pooled and centrifuged at 25,000×g for 30 min at 4° C. […] Protein concentration was determined using Bradford reagent and BSA as a standard.
Protein linearity followed by saturation binding studies were performed on each new batch of membrane. […] Saturation binding studies were then performed using various concentrations of [^3H]-arginine vasopressin, [^3H]-AVP (0.05 nM-100 nM) and the Kd and Bmax determined.
Compounds were tested for their effects on [^3H]-AVP binding to CHO-hV1A membranes, (^3H-AVP; specific activity 65.5 Ci/mmol; NEN Life Sciences). […] The plates were sealed and counted on a TopCount Microplate Scintillation Counter (Packard Instruments). Non-specific binding (NSB) was determined using 1 μM unlabelled d(CH2)5Tyr(Me)AVP ([β-mercapto-β,β-cyclopentamethylenepropionyl, 0-Me-Tyr^2,Arg^8]-vasopressin ) (βMCPVP), (Sigma). The radioligand binding data was analysed using a four parameter logistic equation with the min forced to 0%. […] Specific binding was calculated by subtracting the mean NSB cpm from the mean Total cpm. For test compounds the amount of ligand bound to the receptor was expressed as % bound=(sample cpm−mean NSB cpm)/specific binding cpm×100. […] The inhibitory dissociation constant (Ki) was calculated using the Cheng-Prusoff equation: Ki=IC50/(1+[L]/Kd) where [L] is the concentration of ligand present in the well and Kd is the dissociation constant of the radioligand obtained from Scatchard plot analysis. […]

T1 sequence (P37288 whole entry): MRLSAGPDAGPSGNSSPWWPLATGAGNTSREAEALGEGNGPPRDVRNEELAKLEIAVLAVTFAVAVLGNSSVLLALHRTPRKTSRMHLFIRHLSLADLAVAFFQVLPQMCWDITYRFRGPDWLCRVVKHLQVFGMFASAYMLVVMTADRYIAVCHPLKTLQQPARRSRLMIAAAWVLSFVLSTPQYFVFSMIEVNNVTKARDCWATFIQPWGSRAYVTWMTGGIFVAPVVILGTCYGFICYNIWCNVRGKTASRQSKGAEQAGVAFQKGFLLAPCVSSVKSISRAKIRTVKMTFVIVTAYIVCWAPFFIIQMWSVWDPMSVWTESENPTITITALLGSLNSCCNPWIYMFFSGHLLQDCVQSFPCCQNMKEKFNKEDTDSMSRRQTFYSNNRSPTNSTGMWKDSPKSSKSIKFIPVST

Row | Ki | SMILES
1 | 0.88 nM | Clc1ccc(-n2c(Cn3nccn3)nnc2N2Cc3ccccc3C2)cc1 [Example 8, 2-[4-(4-Chlorophenyl)-5-(2H-1,2,3-triazol-2-ylmethyl)-4H-1,2,4-triazol-3-yl]isoindoline]
2 | 0.47 nM | OCc1ccc2c(c1)CN(c1nnc(Cn3nccn3)n1-c1ccc(Cl)cc1)C2 [Example 10, {2-[4-(4-Chlorophenyl)-5-(2H-1,2,3-triazol-2-ylmethyl)-4H-1,2,4-triazol-3-yl]-2,3-dihydro-1H-isoindol-5-yl}methanol]
3 | 6.58 nM | Cc1nnc(N2CCC3(CC2)OCc2ccccc23)n1-c1ccc(Cl)cc1 [Example 6, 1′-[4-(4-Chlorophenyl)-5-methyl-4H-1,2,4-triazol-3-yl]-3H-spiro[2-benzofuran-1,4′-piperidine]]
4 | 9.69 nM | COCc1nnc(N2Cc3ccccc3C2)n1-c1ccc(Cl)cc1 [Example 1, 2-[4-(4-Chlorophenyl)-5-(methoxymethyl)-4H-1,2,4-triazol-3-yl]isoindoline]
